Data as given in US20250152633A1, “CELLS HAVING IMPROVED PROLIFERATIVE CAPACITY AND REDUCED CELLULAR SENESCENCE” (BOARD OF REGENTS, THE UNIVERSITY OF TEXAS SYSTEM, priority 2023, published 2025).
Entries after “also recorded” stand apart in the source; their conditions may differ. Read-outs that look alike come from different tables or passages of the source. Bridge positions count the residues as written; N and C are the ends. Ends that are not written are not given here.

Columns and labels:
MSCs from aged donors = assay: BrdU proliferation assay (DNA synthesis) after mechanical and chemical treatment; format: cell-based, human; details: for DNA synthesis (BrdU assay): co-treatment with brachial loading, 5 μM KU55933 or 5 mM NAC, aged donor MSCs, vs. static control
Description: Cell lines and cell culture. Human mesenchymal stem cells (Promocell) were cultured in low glucose DMEM medium supplemented with 15% fetal bovine serum, L-glutamine and penicillin/streptomycin. Following trypsinization, cells were seeded on the membranes at 20,000 cells per cm^2 before mechanical loading. The cells were used between passages 4-6, unless otherwise specified. The MSCs were derived from a donor 1, unless otherwise specified. A subset of the studies were performed using MSCs from donor 2, or donor 3, or donor 4. A subset of the studies used MSCs derived from a young, healthy donor. Human umbilical vein endothelial cells (HUVECs; PromoCell GmbH) were cultured in MCDB 131 medium supplemented with 7.5% fetal bovine serum, L-glutamine and penicillin/streptomycin and EGM-2 SingleQuot Kit (Thermo Fisher Scientific, Inc.). All cells were cultured in an incubator at 37° C. under a 5% CO2 atmosphere.
Application of biomechanical treatment. Mechanical strain was applied to cell culture using a high throughput system described previously (Lee et al., 2013; Lee & Baker, 2015; Lee et al., 2020). Briefly, cells are cultured on custom made plates that are mounted on a system that applies strain. The cell culture plates were comprised of silicone membranes (0.005″ thickness; Specialty Manufacturing, Inc.) that are sandwiched between two plates, with silicone rubber gaskets at the interfaces to prevent leaking. These cell culture membranes are UV sterilized and coated with 50 μg/mL fibronectin overnight at 37° C. to allow cell adhesion. After cell attachment, the plates are mounted on to the top plate of the system using screws. To apply mechanical strain, a platen with 36 Teflon pistons is moved into the cell culture membrane. The motion is driven by a hygienically sealed, voice coil-type linear motor (Copley Controls). The platen is stabilized using six motion rails mounted with linear motion bearings. […]
BrdU Proliferation Assay. […] Absorbance was read at 450 nm using a FlexStation-3 plate reader (Molecular Devices). […]

[1] = tested on: MSCs from an aged donor one; assay: Western blotting of protein expression after treatment of MSCs; format: cell-based, human; details: for SIRT6 expression (Western blotting): brachial+NAC (5 mM) or KU55933 (5 μM) treatment; for DNA damage repair protein KU80 expression (Western blotting): brachial+NAC (5 mM) or brachial+KU55933 (5 μM), compared to control groups
Description: Application of biomechanical treatment. Mechanical strain was applied to cell culture using a high throughput system described previously (Lee et al., 2013; Lee & Baker, 2015; Lee et al., 2020). Briefly, cells are cultured on custom made plates that are mounted on a system that applies strain. The cell culture plates were comprised of silicone membranes (0.005″ thickness; Specialty Manufacturing, Inc.) that are sandwiched between two plates, with silicone rubber gaskets at the interfaces to prevent leaking. These cell culture membranes are UV sterilized and coated with 50 μg/mL fibronectin overnight at 37° C. to allow cell adhesion. After cell attachment, the plates are mounted on to the top plate of the system using screws. To apply mechanical strain, a platen with 36 Teflon pistons is moved into the cell culture membrane. The motion is driven by a hygienically sealed, voice coil-type linear motor (Copley Controls). The platen is stabilized using six motion rails mounted with linear motion bearings. The hygienically sealed motor housing has chilled water running through in order to prevent overheating during operation. Unless otherwise specified, loading was applied for 4 hours per day for 7 days with or without 1 μm the EGFR/ErbB-2/ErbB-4 Inhibitor (CAS 881001-19-0; Table 3).
Cell lysis and immunoblotting. Following the treatments, the cells were lysed in 20 mM Tris with 150 mM NaCl, 1% Triton X-100, 0.1% SDS, 2 mM sodium orthovandate, 2 mM PMSF, 50 mM NaF and a protease inhibitor cocktail (Roche, Inc.). The proteins were separated on a NuPAGE 10% bis-tris midi gel (Novex) and transferred to nitrocellulose membrane using iBlot transfer stack (Novex). The membranes were blocked for one hour in 5% non-fat milk in PBS with 0.01% tween-20 (PBST). After washing twice in PBST, cells were incubated with primary antibodies (Table 1) overnight in 1% non-fat milk at 4° C. The membranes were washed with PBST and incubated at room temperature for two hours with secondary antibody. The membrane was treated with chemiluminescent substrate (SuperSignal West Femto; Thermo Fisher Scientific, Inc.) then imaged using a digital imaging system (Cell Biosciences, Inc.).
(§1) Conditioning of hMSCs using biochemical factors. For mechanistic experiments involving chemical factors and biological inhibitors, cells were incubated with the chemical treatments as shown in Table 3. The cells were treated with mechanical loading for 4 hours/day under brachial waveform at 0.1 Hz and 7.5% maximum strain or cultured under static conditions. The culture media containing the treatments were replaced on day 3 and day 5 for all 7-day treatments.

MSCs from an aged donor = assay: p-γ-H2AX DNA double-strand break repair foci immunostaining; format: cell-based, human; details: for p-γ-H2AX foci, treatment of static control cells vs. static treatment alone: 4 hours static, 3 μM GsMTx4, 2 μM Dooku 1
Description: Immunocytochemical staining on silicone membranes. Following the treatments, the cells were fixed in 4% paraformaldehyde in PBS for 10 minutes followed by washing and permeabilization with 0.1% Triton X-100 PBS for 5 minutes. Next, samples were blocked with PBS containing 5% FBS and 1% BSA for 40 minutes. After washing, cells were incubated with primary antibodies (see Table 2 for specific antibodies and concentrations) in PBS with 1% BSA overnight at 4° C. The samples were then washed twice in PBS with 1% BSA and incubated with secondary antibodies in PBS with 1% BSA for 2 hours in a light protected environment. Cells treated with extensive washes with PBS with 1% BSA prior to mounting in anti-fade media (Vector Laboratories, Inc.). The samples were then imaged using confocal microscopy with a LSM 710 laser scanning confocal microscope (Carl Zeiss, Inc.).
p-γ-H2AX Foci Analysis. Following confocal imaging, images were analyzed with FIJI software to count p-γ-H2AX histone foci. Three-dimensional image stacks were maximum intensity projected to generate two-dimensional images with 12-bit range of 0-4095. Background signal outside of nuclei boundaries was measured and subtracted from the image. Individual cell nuclei regions of interest were selected, and an intensity threshold of 300 bits was applied. The Analyze Particle plugin was applied to count the p-γ-H2AX foci in each nucleus, with a minimum particle size of 0.5 μm applied. At least 100 individual cell nuclei were analyzed for each treatment group to calculate the mean foci count per cell, mean foci count per nuclear area, and standard errors.
as §1

aged MSCs = assay: β-Galactosidase staining of senescent cell phenotypes; format: cell-based, human; details: 5 mM NAC or 5 μM KU55933, with or without brachial loading; vs. static control
Description: Conditioning of hMSCs using biochemical factors. For mechanistic experiments involving chemical factors and biological inhibitors, cells were incubated with the chemical treatments as shown in Table 3. The cells were treated with mechanical loading for 4 hours/day under brachial waveform at 0.1 Hz and 7.5% maximum strain or cultured under static conditions. The culture media containing the treatments were replaced on day 3 and day 5 for all 7-day treatments. β-Galactosidase Analysis. Following the treatments, cell culture media was removed, and cells were washed once with PBS. Cells were fixed and stained for β-Galactosidase following the protocol of the Senescence β-Galactosidase Staining Kit (Cell Signaling Technologies). Following staining, cells were stored with 70% glycerol and imaged using a light microscope (Meiji, Inc.). Images were post-processed in Adobe Photoshop to increase image contrast and visibility of β-Galactosidase+ cells. Total cells and β-Galactosidase+ cells were manually counted in FIJI, with at least 1,000 cells counted per treatment group.

[2] = tested on: MSCs from three young, healthy donors; assay: RNA-seq analysis of senescence-related gene sets; format: cell-based, human; details: brachial loading and E/E inhibitor; young donor MSCs; age-, oncogenic-, stress-, developmental- and inflammation-related senescence gene sets
Description: To investigate the treatments' effects on gene expression patterns that are correlated with senescence in MSCs, MSCs were obtained from three young, healthy donors, and conditioned with brachial loading and E/E inhibitor. Following the treatments, RNA-seq analysis was performed on the cells, and the expression of several key gene sets related to various mechanisms of senescence in MSCs was evaluated. These gene sets were identified through a thorough investigation of the literature as key mediators of MSC senescence, and the expression pattern of each gene as it pertains to MSC senescence was documented (Zhou et al., 2020; Brandl et al., 2011; Turinetto et al., 2016; Ozkul & Galderisi, 2016; Fridman & Tainsky, 2008; Ki et al., 2014; Cakouros & Gronthos, 2019; Peffers et al., 2016). […] Next, a gene set enrichment analysis (GSEA) was performed on the RNA-seq data. […] In all three senescence-related gene sets, a reduction in senescence related genes with brachial mechanical loading was observed (FIG. 1).
RNA Sequencing and Analysis. […] For sequencing, single reads of 50 base pairs were performed after poly-A mRNA capture using the Poly(A) Tailing Kit (Ambion) and Ultra II Directional RNA Library Prep Kit (NEB) to isolate mRNA and perform dUTP directional preparation of the mRNA library. […]

MSCs from young donors [3] = details: 1 μM inhibitor as cotreatment with brachial loading; cited from earlier work
MSCs from young donors [4] = details: 1 μM inhibitor as cotreatment with brachial loading, tube formation assay, cited from earlier work

O=c1cc(-c2cccc3c2Sc2ccccc2S3)oc(N2CCOCC2)c1 [KU55933]
DNA synthesis (BrdU assay) (MSCs from aged donors): significantly higher DNA synthesis | SIRT6 expression (Western blotting) ([1]; vs. static control): no significant change | DNA damage repair protein KU80 expression (Western blotting) [1]: remained statistically unchanged

GsMTx4: directly inhibits Piezo1 channel activity (Tocris 4912) (GCLEFWWKCNPNDDKCCRPKLKCSKLFKLCNFSF; disulfide 16-30, 2-17, 9-23; not fully specified (C-terminus); ends not checked; UniProt Q7YT39 47-80, looked up)
p-γ-H2AX foci, treatment of static control cells vs. static treatment alone (MSCs from an aged donor): significantly more p-γ-H2AX foci than static treatment alone

CC(Nc1nc(N2CCCC2)nc2ccccc12)c1ccccc1 (stereo not drawn) [Importazole]
p-γ-H2AX foci, co-treatment with brachial loading vs. brachial loading alone (MSCs from an aged donor; 4 hours brachial loading, 40 μM Importazole): significantly more p-γ-H2AX foci than treatment with brachial loading alone

CC(=O)N[C@@H](CS)C(=O)O [NAC, N-acetyl-L cysteine]
DNA synthesis (BrdU assay) (MSCs from aged donors): not under brachial+NAC treatment; also recorded: a reduction of proliferative enhancement was observed | SIRT6 expression (Western blotting) ([1]; vs. static control): significant upregulation | DNA damage repair protein KU80 expression (Western blotting) [1]: remained statistically unchanged | percentage of β-galactosidase+ cells (aged MSCs): significant reduction

Dooku1
p-γ-H2AX foci, treatment of static control cells vs. static treatment alone (MSCs from an aged donor): significantly more p-γ-H2AX foci than static treatment alone

CC#CC(=O)Nc1cc2c(Nc3ccc(F)c(Cl)c3)ncnc2cn1 [E/E inhibitor]
DNA synthesis (BrdU proliferation assay) (MSCs from aged donors; brachial loading 7.5% strain, 4 hours per day for 7 days + 1 μM E/E inhibitor, MSCs from three donors (68-92 years), relative to static control): increased DNA synthesis in two of three donor lines | expression of antioxidant enzyme SOD1 (Western blotting) ([1]; brachial loading and E/E inhibitor treatments, aged donor one MSCs): significantly upregulated expression | oxidative stress signaling protein expression, FOX0 transcription factors (Western blotting) ([1]; brachial+E/E inhibitor, 4 hours per day for 7 days, aged donor one MSCs, vs. static control): upregulation of FOX01, p-FOX01, FOX03a, p-FOX03a, and p-FOX04 | Sirtuin protein expression (Western blotting) ([1]; brachial+E/E treatment, donor one MSCs, in comparison to static control): upregulation of p-SIRT1, SIRT6, and SIRT7 | senescence-related gene expression patterns (RNA-seq) [2]: reversed the effects implicated by senescence | MSCs that expressed the markers for both endothelial cells and pericytes (MSCs from young donors [3]): dramatic increase | angiogenic activity / angiogenic properties of MSCs (MSCs from young donors [4]; listed as EGFR/ErbB-2/4 (E/E) inhibitor): enhanced angiogenic activity | angiogenic activity / angiogenic properties of MSCs (MSCs from young donors [4]; listed as EGFR/ErbB-2/4 (E/E)): synergistically enhances the angiogenic properties
